Test results taken from patent US20100216751A1 (priority 2007, published 2010).
“And” between values parts separate entries of the source, which are not always exact repeats. Identical values can stand only once.

Experiment: Pharmacokinetic evaluation of liquid bevirimat dosage forms, oral gavage, male Cynomolgus monkeys
Method: Six male Cynomolgus monkeys having an initial body weight of about 3.5 to about 4.5 kg are allowed 7 days to acclimate to their individual housing units. Monkeys are supplied with water and a commercial diet ad libitum prior to the study initiation. Food is withheld from the monkeys for a minimum of twelve hours before the study and during the study until four hours postdose when food is returned. Water is supplied ad libitum.
Test formulations are administered to the monkeys at time 0 on appropriate days. Test formulations will be dosed orally via oral gavage or intravenously.
Samples are drawn at the frequencies indicated below. Each blood sample (0.5 mL) is collected from the monkey's saphenous vein via a butterfly catheter and placed into a chilled polypropylene tube containing sodium heparin as the anticoagulant. Blood samples are centrifuged at a temperature of 4° C. at a speed of 3,000 rpm for 15 minutes. All samples are maintained chilled throughout processing. Plasma is collected after centrifugation, pipetted into a 2-mL polypropylene microtube, and frozen on dry-ice pending analytical evaluation.

[1] = 12.5 mg FAE/mL in 10% HPβCD, 50 mg FAE/monkey oral gavage, monkeys 186,116,120,AVG
[2] = 12.5 mg FAE/mL in 15% EtOH:0.5% TPGS:15% PG:5% Glycerin, 0.2% Povidone K90, 50 mg FAE/monkey oral gavage, monkeys 117,118,119,AVG
[3] = 12.5 mg FAE/mL in 15% Ethanol, 30% PG, 10% Glycerin, 50 mg FAE oral gavage, monkeys 117,118,119,AVG
[4] = 12.5 mg FAE/mL in 40% PG, 20% Glycerin, 0.25% Tween80, 0.2% Povidone K15, 50 mg FAE oral gavage, monkeys 186,116,120,AVG
[5] = 12.5 mg FAE/mL in 40% PG, 20% Glycerin, 1% TPGS, 0.25% Tween80, 0.2% Povidone K15, 50 mg FAE/monkey oral gavage, monkeys 117,118,119,AVG
[6] = 12.5 mg FAE/mL in 40% PG, 20% glycerin, 5% Vitamin E TPGS, 0.25% Tween80, 0.20% Plasdone C15, 10 mM sodium phosphate pH 8.0, 200 mg/monkey (50.0 mg/kg) oral gavage, monkeys 181,182,AVG
[7] = 50 mg FAE/mL in 40% EtOH:40% PG:20% Glycerol, 50 mg FAE/monkey oral gavage, monkeys 117,118,119,AVG
[8] = male, cynomolgus monkey, in vivo, 50 mg/kg, pH 8
[9] = male, cynomolgus monkey, in vivo, po, 50 mg FAE/monkey

C=C(C)[C@@H]1CC[C@]2(C(=O)O)CC[C@]3(C)[C@H](CC[C@@H]4[C@@]5(C)CC[C@H](OC(=O)CC(C)(C)C(=O)O)C(C)(C)[C@@H]5CC[C@]43C)[C@@H]12 [Bevirimat, 3-O-(3′,3′-dimethylsuccinyl)betulinic acid]
AUCall [1]: 392.275 µg·h/mL | Cmax [1]: 56.4 µg/mL | Dnzed AUCall [1]: 38150 ng·h/mL/mg/kg | t1/2 [1]: 7.0 h and 11.4 h and 9.4 h | t1/2 (12.5 mg FAE/mL in 15% EtOH:0.5% TPGS:15% PG:5% Glycerin, 50 mg FAE/monkey oral gavage, monkeys 117,118,119,AVG): 11.3 h and 11.5 h and 11.6 h | AUCall [2]: 270.194 µg·h/mL and 344.629 µg·h/mL and 367.461 µg·h/mL | Cmax [2]: 65.6 µg/mL and 52.8 µg/mL and 56.567 µg/mL | t1/2 [2]: 14.5 h and 8.7 h and 11.8 h | Cmax [3]: 57.2 µg/mL and 97.4 µg/mL and 72.9 µg/mL | t1/2 [3]: 10.4 h and 9.0 h and 9.4 h | Dnzed AUCall [4]: 17281 ng·h/mL/mg/kg and 15596 ng·h/mL/mg/kg | t1/2 [4]: 8.1 h and 10.2 h and 8.7 h | t1/2 (12.5 mg FAE/mL in 40% PG, 20% Glycerin, 1% TPGS, 0.25% Tween80, 50 mg FAE/monkey oral gavage, monkeys 186,116,120,AVG): 9.9 h and 11.1 h and 10.3 h | Cmax [5]: 84.8 µg/mL and 77.2 µg/mL and 85.1 µg/mL | t1/2 [5]: 7.9 h and 6.4 h and 8.2 h | AUCall [6]: 1681.058 µg·h/mL | Cmax [6]: 174 µg/mL and 199.5 µg/mL | Dnzed AUCall [6]: 33621 ng·h/mL/mg/kg | t1/2 [6]: 10.2 h and 9.2 h | t1/2 (25 mg/mL in 30% EtOH:1% TPGS:30% PG:10% Glycerin, 50 mg FAE/monkey oral gavage, monkeys 117,118,119,AVG): 17.8 h and 9.0 h and 12.5 h | Cmax [7]: 24.9 µg/mL and 33.1 µg/mL and 27.933 µg/mL | t1/2 [7]: 7.8 h and 8.5 h | t1/2 (50 mg FAE/mL in 40% PG:20% Glycerin:1% TPGS:5% Tween 80 in SWFI, 50 mg FAE/monkey oral gavage, monkeys 117,118,119,AVG): 11.8 h and 14.6 h and 12.8 h | t1/2 (10% HPβCD, 50 mg FAE/monkey oral gavage, monkeys 117,118,119,AVG): 10.2 h and 11.0 h and 10.4 h | bioavailability (male, cynomolgus monkey, in vivo): ~55% | concentration at 1 hr [8]: 108 µg/mL | concentration at 2 hr [8]: 225 µg/mL | concentration at 4 hr [8]: 163 µg/mL | concentration at 6 hr [8]: 107 µg/mL | concentration at 8 hr [8]: 70.3 µg/mL | concentration at 12 hr [8]: 47.5 µg/mL | concentration at 0.25 hr (male, cynomolgus monkey, in vivo, po, 50 mg FAE): 3.06 µg/mL | concentration at 0.25 hr (male, cynomolgus monkey, in vivo, po, 50 mg FAE, Plasma concentration, 0.25 hr, 12.5 mg FAE/mL in 15% Ethanol, 30% PG, 10% Glycerin, 50 mg FAE oral gavage, monkeys 117,118,119,AVG, BLOQ=below 50 ng/mL): 0.066 µg/mL | concentration at 4 hr (male, cynomolgus monkey, in vivo, po, 50 mg FAE, Plasma concentration, 4.0 hr, 12.5 mg FAE/mL in 15% Ethanol, 30% PG, 10% Glycerin, 50 mg FAE oral gavage, monkeys 117,118,119,AVG): 46 µg/mL | concentration at 6 hr (male, cynomolgus monkey, in vivo, po, 50 mg FAE, Plasma concentration, 6.0 hr, 12.5 mg FAE/mL in 15% Ethanol, 30% PG, 10% Glycerin, 50 mg FAE oral gavage, monkeys 117,118,119,AVG): 44.7 µg/mL | concentration at 24 hr (male, cynomolgus monkey, in vivo, po, 50 mg FAE, Plasma concentration, 24 hr, 12.5 mg FAE/mL in 40% PG, 20% Glycerin, 0.25% Tween80, 0.2% Povidone K15, 50 mg FAE oral gavage, monkeys 186,116,120,AVG): 0.434 µg/mL | concentration at 48 hr (male, cynomolgus monkey, in vivo, po, 50 mg FAE, Plasma concentration, 48 hr, 12.5 mg FAE/mL in 40% PG, 20% Glycerin, 0.25% Tween80, 0.2% Povidone K15, 50 mg FAE oral gavage, monkeys 186,116,120,AVG): 0.0603 µg/mL | concentration at 72 hr (male, cynomolgus monkey, in vivo, po, 50 mg FAE, Plasma concentration, 72 hr, 12.5 mg FAE/mL in 15% Ethanol, 30% PG, 10% Glycerin, 50 mg FAE oral gavage, monkeys 117,118,119,AVG, BLOQ=below 50 ng/mL): 0.179 µg/mL | concentration at 1 hr [9]: 85.2 µg/mL | concentration at 2 hr [9]: 93.3 µg/mL | concentration at 4 hr [9]: 62.7 µg/mL | concentration at 0.25 hr (male, cynomolgus monkey, in vivo, po, 50 mg FAE/monkey, Plasma concentration, 0.25 hr, 25 mg/mL in 30% EtOH:1% TPGS:30% PG:10% Glycerin, 50 mg FAE/monkey oral gavage, monkeys 117,118,119,AVG, BLOQ=below 50 ng/mL): 0.147 µg/mL | concentration at 0.25 hr (male, cynomolgus monkey, in vivo, po, 50 mg FAE/monkey, Plasma concentration, 0.25 hr, 50 mg FAE/mL in 40% EtOH:40% PG:20% Glycerol, 50 mg FAE/monkey oral gavage, monkeys 117,118,119,AVG, BLOQ=below 50 ng/mL): 0.0755 µg/mL | concentration at 0.5 hr (male, cynomolgus monkey, in vivo, po, 50 mg FAE/monkey, Plasma concentration, 0.50 hr, 12.5 mg FAE/mL in 40% PG, 20% Glycerin, 1% TPGS, 0.25% Tween80, 0.2% NaCMC, 50 mg FAE/monkey oral gavage, monkeys 117,118,119,AVG): 12.5 µg/mL | concentration at 1 hr (male, cynomolgus monkey, in vivo, po, 50 mg FAE/monkey, Plasma concentration, 1.0 hr, 12.5 mg FAE/mL in 10% HPβCD, 50 mg FAE/monkey oral gavage, monkeys 186,116,120,AVG): 56.4 µg/mL | concentration at 1 hr (male, cynomolgus monkey, in vivo, po, 50 mg FAE/monkey, Plasma concentration, 1.0 hr, 12.5 mg FAE/mL in 40% PG, 20% Glycerin, 1% TPGS, 0.25% Tween80, 50 mg FAE/monkey oral gavage, monkeys 186,116,120,AVG): 65.5 µg/mL | concentration at 1 hr (male, cynomolgus monkey, in vivo, po, 50 mg FAE/monkey, Plasma concentration, 1.0 hr, 50 mg FAE/mL in 40% EtOH:40% PG:20% Glycerol, 50 mg FAE/monkey oral gavage, monkeys 117,118,119,AVG): 19.2 µg/mL
